Test results taken from PubChem BioAssay (NCI).
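How tested: cells in 96-well plates exposed to compound for 48 hours at five concentrations. Definition used: TGI = concentration required for complete inhibition of growth.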

Key:
Test in all cases: NCI tumour cell line growth inhibition, 48 h
CAKI-1 renal = test system: CAKI-1 renal
KM12 colon = test system: KM12 colon
SW-620 colon = test system: SW-620 colon
786-0 renal = test system: 786-0 renal
UACC-257 melanoma = test system: UACC-257 melanoma
ACHN renal = test system: ACHN renal
HS 578T breast = test system: HS 578T breast
HCT-116 colon = test system: HCT-116 colon
NCI-H23 lung = test system: NCI-H23 lung
PC-3 prostate = test system: PC-3 prostate
HCC-2998 colon = test system: HCC-2998 colon
COLO 205 colon = test system: COLO 205 colon
NCI/ADR-RES ovarian = test system: NCI/ADR-RES ovarian
MDA-MB-231 breast = test system: MDA-MB-231 breast
K-562 leukemia = test system: K-562 leukemia
MDA-N = test system: MDA-N
MDA-MB-435 = test system: MDA-MB-435
NCI-H226 lung = test system: NCI-H226 lung

Row | SMILES | TGI (CAKI-1 renal) [µM] | TGI (KM12 colon) [µM] | TGI (SW-620 colon) [µM] | TGI (786-0 renal) [µM] | TGI (UACC-257 melanoma) [µM] | TGI (ACHN renal) [µM] | TGI (HS 578T breast) [µM] | TGI (HCT-116 colon) [µM] | TGI (NCI-H23 lung) [µM] | TGI (PC-3 prostate) [µM] | TGI (HCC-2998 colon) [µM] | TGI (COLO 205 colon) [µM] | TGI (NCI/ADR-RES ovarian) [µM] | TGI (MDA-MB-231 breast) [µM] | TGI (K-562 leukemia) [µM] | TGI (MDA-N) [µM] | TGI (MDA-MB-435) [µM] | TGI (NCI-H226 lung) [µM]
1 | CC(=O)OC/C=C/Cn1nc(Br)c(=O)[nH]c1=O | > 100 | > 100 | > 100 | > 100 | > 100 | > 100 | > 100 | > 100 | > 100 | > 100 | > 100 | > 100 | > 100 | > 100 | > 100 | > 100 | > 100 | > 100
2 | N=c1sc(N2CCOCC2)nn1CC(=O)c1ccccc1 | > 100 | > 100 | > 100 | > 100 | > 100 | > 100 | > 100 | > 100 | > 100 | > 100 | > 100 | > 100 | > 100 | > 100 | > 100 | > 100 | > 100 | > 100
3 | O=C1Cc2c(-c3ccccc3)cc(-c3ccc(Cl)cc3)nc2-c2ccccc2N1 | 16.2 | 96.1 | > 47.6 | 3.51 | > 58.2 | 7.36 | 11.8 | 11.9 | 17.8 | > 57.7 | 33.4 | 18 | 14.8 | 19.2 | > 100 | 35.4 | > 45.7 | 22
4 | CC(=O)OC1C(C)OC(OC2C[C@](O)(C(C)=O)Cc3c(O)c4c(c(O)c32)C(=O)c2ccccc2C4=O)C(F)C1OC(C)=O (some centres not stated) | 1.39 | > 100 | > 100 | 2.36 | 9.02 | 0.704 | 9.89 | 2.84 | 1.81 | 22.4 | 16.6 | > 100 | 9.46 | 10.7 | > 100 | > 100 | 23.5 | 2.86
5 | O=C1c2sccc2C(=O)c2c(CO)csc21 | 48.2 | 31.5 | > 86.5 | 18.5 | 5.24 | 12.2 | 33.7 | 9.47 | 5.95 | > 32.8 | 13.7 | 12.2 | 19.1 | 50.1 | > 100 | 3.16 | 4.62 | 15
6 | CN1Cc2c(ccc3c2OCO3)[C@@H]2[C@H](O)Cc3cc4c(cc3[C@@H]21)OCO4 | > 100 | 12.4 | > 100 | > 75 | > 100 | > 100 | > 100 | > 44.7 | 12.8 | > 100 | 4.49 | 4.55 | > 100 | 24.6 | > 100 | 1.46 | 2.53 | 9.94
7 | O=C1C[C@@]23CCC4(CC2=CCC[C@H]3O1)OCCO4 | > 100 | > 100 | > 100 | > 100 | > 100 | > 100 | > 100 | > 100 | > 100 | > 100 | > 100 | > 100 | > 100 | > 100 | > 100 | > 100 | > 100 | > 100
8 | O=P1(C(O)c2ccccc2)N(Cc2ccccc2)[C@@H]2CCCC[C@H]2N1Cc1ccccc1 (some centres not stated) | > 100 | > 100 | > 100 | 47.9 | 56 | > 100 | 45.5 | > 100 | > 100 | 89.1 | 50.4 | 29.1 | > 100 | 53.8 | > 100 | > 100 | 71 | 64.7
9 | Clc1cc2ncn(C3CCCO3)c2cc1Cl (configuration not stated) | > 100 | > 100 | > 100 | > 100 | > 100 | > 100 | > 100 | > 100 | > 100 | > 100 | > 100 | > 100 | > 100 | > 100 | > 100 | > 100 | > 100 | > 100
10 | CC(C)(C)OC(=O)NCCCCC1NC(=O)[C@@H]2Cc3c([nH]c4ccccc34)C(c3ccccc3)N2C1=O (some centres not stated) | > 100 | > 100 | > 100 | 82.3 | > 100 | > 100 | 49.6 | > 100 | > 100 | > 100 | 40.3 | 46.9 | > 100 | 94.6 | > 100 | > 100 | > 100 | > 100
11 | COc1ccc(OC)c2c(Nc3ccc(S(=O)(=O)O)c4cc(S(=O)(=O)O)cc(S(=O)(=O)O)c34)cc(C)nc12 | > 100 | > 100 | > 100 | > 100 | > 100 | > 100 | > 100 | > 100 | > 100 | > 100 | > 100 | > 100 | > 100 | > 100 | > 100 | > 100 | > 100 | > 100
12 | C/C(=C\CNc1ncnc2c1ncn2CCC#N)CO | > 100 | > 100 | > 100 | > 100 | > 100 | > 100 | > 100 | > 100 | > 100 | > 100 | > 100 | > 100 | > 100 | > 100 | > 100 | > 100 | > 100 | > 100
13 | CO/C(N)=C(\C#N)N=Cc1cccs1 | > 100 | > 100 | > 100 | > 100 | > 100 | > 100 | > 100 | > 100 | > 100 | > 100 | > 100 | > 100 | > 100 | > 100 | > 100 | 90.1 | 73.3 | > 100
14 | CCOC(=O)C1(NC(=O)OC(C)(C)C)CCc2[nH]oc(=O)c2C1 (configuration not stated) | > 100 | > 100 | > 100 | > 100 | > 100 | > 100 | > 100 | > 100 | > 100 | > 100 | > 100 | > 100 | > 100 | > 100 | > 100 | > 100 | > 100 | > 100
15 | Cc1nnc(N)s/c1=N/O | > 100 | > 100 | > 100 | > 100 | > 100 | > 100 | > 100 | > 100 | > 100 | > 100 | > 100 | > 100 | > 100 | > 100 | > 100 | > 100 | > 100 | > 100
16 | CCOC(=O)C(NC(=O)c1cccc(Cl)c1)(N1CCN(c2cc3c(cc2F)c(=O)c(C(=O)O)cn3CC)CC1)C(F)(F)F (configuration not stated) | 60.9 | 25.2 | 29.4 | 30.9 | 54.9 | 32.9 | 44.8 | 27.6 | 42 | 35.1 | 27.5 | 32 | > 100 | 36.3 | 52 | 28.2 | 28 | 40.1
17 | FC(F)(Sc1nc2ccccc2[nH]1)c1nc2ccccc2o1 | > 100 | > 100 | > 100 | > 100 | > 100 | > 100 | > 100 | > 100 | > 100 | > 100 | > 100 | > 100 | > 100 | > 100 | > 100 | > 100 | > 100 | > 100
18 | CC(=O)CC(=O)N1CCOC1=O | > 10 | > 10 | > 10 | > 10 | > 10 | > 10 | > 10 | > 10 | > 10 | > 10 | > 10 | > 10 | > 10 | > 10 | > 10 | > 10 | > 10 | > 10
19 | COc1ccc(/[N+]([O-])=C/c2ccccc2OC(=S)S)cc1 | > 100 | > 100 | > 100 | 65.5 | 97.1 | > 100 | > 100 | 73.5 | 85.5 | > 100 | > 100 | > 100 | 94.9 | > 100 | > 100 | 63.4 | 55.7 | > 100
